Laboratory results taken from PMC3038857, “Using Nuclear Receptor Activity to Stratify Hepatocarcinogens” (PLoS ONE, 2011).
Where two headings read alike, the source gives them in different places.

How the values were obtained:
Rat Liver [1] = conditions: ref ToxRefDB, cited from earlier work
[2] = target: T1, ESR1 (estrogen receptor 1) (Homo sapiens, UniProt P03372); test: ATG_ERE_CIS: Factorial reporter gene assay (HepG2); format: cell-based; conditions: HepG2
T1 construct: expressed in transfected cells; host or cells: HepG2
Experimental: (§1) A multiple reporter transcription unit (MRTU) library consisting of 48 transcription factor binding sites was transfected into the HepG2 human liver hepatoma cell line. In addition to the cis-acting reporter genes (CIS), a modification of the approach was used to generate a trans-system (TRANS) with a mammalian one-hybrid assay consisting of an additional 25 MRTU library reporting the activity of nuclear receptor super-family members. […] These assays were performed by Attagene Inc. (Morrisville NC) under contract to EPA.
(§2) In addition to the cis-acting reporter genes (CIS), a modification of the approach was used to generate a trans-system (TRANS) with a mammalian one-hybrid assay consisting of an additional 25 MRTU library reporting the activity of nuclear receptor super-family members. […] Chemicals were then tested in the CIS and TRANS assays at seven concentrations starting at the MTC and followed by three-fold serial dilutions. These assays were performed by Attagene Inc. (Morrisville NC) under contract to EPA. Detailed description of the methods, data and analysis methods for this dataset will be presented in a separate publication.

PXR (NR1I2) [3] = target: T2, PXR (NR1I2) (Homo sapiens, UniProt O75469); test: ATG_PXRE_CIS: Factorial reporter gene assay (HepG2); format: cell-based; parameters: endogenous in cells; host or cells: HepG2; conditions: HepG2
T2 sequence (O75469 1-434): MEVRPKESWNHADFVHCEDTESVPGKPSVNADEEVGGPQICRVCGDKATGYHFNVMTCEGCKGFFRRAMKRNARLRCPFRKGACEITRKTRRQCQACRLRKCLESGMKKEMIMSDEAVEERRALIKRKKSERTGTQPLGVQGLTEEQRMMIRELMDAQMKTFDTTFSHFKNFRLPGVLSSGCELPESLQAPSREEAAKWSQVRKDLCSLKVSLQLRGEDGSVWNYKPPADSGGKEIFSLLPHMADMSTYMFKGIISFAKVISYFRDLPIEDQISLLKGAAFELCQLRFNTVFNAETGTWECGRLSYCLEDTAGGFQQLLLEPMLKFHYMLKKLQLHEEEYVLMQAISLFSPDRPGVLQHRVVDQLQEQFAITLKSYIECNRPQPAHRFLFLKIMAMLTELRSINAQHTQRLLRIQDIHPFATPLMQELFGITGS
In short: (§3)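 CIS (PXRE): HepG2 transfected with 48 TF-binding-site MRTU library. TRANS (ERRg, FXR, PPARg): one-hybrid format, extra 25 nuclear-receptor MRTUs. 7 concs, top = MTC, 3-fold serial dilution.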

Rat Liver [4] = conditions: ref ToxRefDB, cited from earlier work; remark: listed apart in the source
CYP2B6 = test: CLZD_CYP2B6: Change in expression of CYP2B6 (primary human hepatocytes); format: cell-based; conditions: 24 hr
In short: (§4)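 Primary human hepatocytes exposed to 5 concentrations (0.004-40 µM) for 6, 24 or 48 hr; transcript levels measured by multiplexed quantitative nuclease protection assay. Markers of nuclear receptor pathways: CYP1A1 (AhR), CYP2B6 and ABCB1 (CAR), CYP3A4 (PXR).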

Rat Liver [5] = conditions: ref ToxRefDB, cited from earlier work; remark: listed apart in the source
CYP3A4 = test: CLZD_CYP3A4: Change in expression of CYP3A4 (primary human hepatocytes); format: cell-based; conditions: 24 hr
In short: as §4

Mouse Liver [6] = conditions: mouse, chronic study, ref ToxRefDB; cited from earlier work
Mouse Liver [7] = conditions: mouse, chronic study, ref ToxRefDB; cited from earlier work; remark: listed apart in the source
AR (androgen receptor) = test: NVS_NR_hAR: Human AR 3H-Methyltrienolone (cell-free HTS); format: binding
Description: These are a collection of biochemical assays measuring binding constants and enzyme inhibition values. Chemicals were initially screened at a single concentration in duplicate wells at a concentration of 10 [drawing 63] M for cytochrome P-450 assays and 25 [drawing 64] M for all others. […] These assays were run by Caliper Life Sciences (Hanover, MD) under contract to EPA. Short assay descriptions are available at: http://www.caliperls.com/products/contract-research/in-vitro/.
Cell-free HTS Assays: A collection of biochemical assays measuring binding constants and enzyme inhibition values. […] These assays were run by Caliper Life Sciences (Hanover, MD) under contract to EPA. Short assay descriptions are available at http://www.caliperls.com/products/contract-research/in-vitro/. Values for all endpoints were imported into GeneData Screener (Basel, Switzerland) and normalised to solvent controls from the same plate as the tested compounds and expressed as percent of neutral control. Concentration-response curves were fit in GeneData Screener (Basel, Switzerland) Condeseo module using the Hill equation and AC50 values were determined. […] Detailed description of the methods, data and analysis methods for this dataset are described in a separate publication.

PXR (NR1I2) [8] = target: T2, PXR (NR1I2); test: ATG_PXR_TRANS: Factorial reporter gene assay (HepG2); format: cell-based; parameters: endogenous in cells; host or cells: HepG2; conditions: HepG2
In short: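 HepG2 cells transfected with multiplexed reporter libraries: cis-acting binding-site reporters (CIS) and a one-hybrid nuclear-receptor trans system (TRANS). Chemicals tested at seven concentrations, starting at the maximum tolerated concentration with three-fold serial dilutions.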

PXR (NR1I2) [9] = target: T2, PXR (NR1I2); test: NVS_NR_hPXR: Human PXR Fluormone PXR (SXR) green (cell-free HTS); format: binding
In short: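 Responses were normalized to same-plate solvent controls as percent of neutral control. AC50 values came from Hill-equation fits of concentration-response curves.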

[10] = target: T3, PPARG (peroxisome proliferator-activated receptor gamma) (Homo sapiens, UniProt P37231); test: ATG_PPARg_TRANS: Factorial reporter gene assay (HepG2); format: cell-based; conditions: HepG2
T3 construct: expressed in transfected cells; host or cells: HepG2
T3 sequence (P37231 1-505): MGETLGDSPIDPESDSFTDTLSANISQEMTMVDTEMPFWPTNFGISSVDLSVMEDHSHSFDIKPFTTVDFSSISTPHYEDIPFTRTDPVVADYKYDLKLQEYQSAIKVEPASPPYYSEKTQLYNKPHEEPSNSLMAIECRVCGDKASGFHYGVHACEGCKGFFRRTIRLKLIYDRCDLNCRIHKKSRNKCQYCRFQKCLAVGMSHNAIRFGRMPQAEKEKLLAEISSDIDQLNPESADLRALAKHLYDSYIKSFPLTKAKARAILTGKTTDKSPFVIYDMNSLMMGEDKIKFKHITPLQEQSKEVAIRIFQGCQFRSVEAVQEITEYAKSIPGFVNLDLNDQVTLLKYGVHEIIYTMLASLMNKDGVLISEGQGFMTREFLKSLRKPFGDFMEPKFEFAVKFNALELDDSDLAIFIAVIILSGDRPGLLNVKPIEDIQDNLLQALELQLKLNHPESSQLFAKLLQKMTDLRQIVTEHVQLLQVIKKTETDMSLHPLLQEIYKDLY
In short: as §3

Mouse Liver [11] = conditions: mouse, chronic study, ref ToxRefDB; cited from earlier work; remark: listed apart in the source
LXRa (NR1H3) = target: T4, LXRa (NR1H3) (Homo sapiens, UniProt Q13133); test: ATG_LXRa_TRANS: Factorial reporter gene assay (HepG2); format: cell-based; conditions: HepG2
T4 construct: expressed in transfected cells; host or cells: HepG2
T4 sequence (Q13133 1-447): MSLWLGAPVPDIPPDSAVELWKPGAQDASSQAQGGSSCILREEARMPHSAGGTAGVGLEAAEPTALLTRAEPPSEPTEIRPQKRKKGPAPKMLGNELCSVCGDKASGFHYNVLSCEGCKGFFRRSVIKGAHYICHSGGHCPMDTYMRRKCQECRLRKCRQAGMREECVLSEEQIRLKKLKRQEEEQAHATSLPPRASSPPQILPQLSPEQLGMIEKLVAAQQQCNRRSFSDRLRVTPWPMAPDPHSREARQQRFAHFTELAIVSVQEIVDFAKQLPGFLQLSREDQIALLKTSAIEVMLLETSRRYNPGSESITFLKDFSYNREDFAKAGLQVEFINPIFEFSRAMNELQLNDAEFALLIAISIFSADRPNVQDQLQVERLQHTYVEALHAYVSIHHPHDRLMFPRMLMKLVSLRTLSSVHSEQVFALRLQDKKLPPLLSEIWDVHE
Experimental: as §1, §2

[12] = target: T5, AHR (aryl hydrocarbon receptor) (Homo sapiens, UniProt P35869); test: ATG_Ahr_CIS: Factorial reporter gene assay (multiplexed transcription reporter, HepG2); format: cell-based; conditions: HepG2
T5 construct: endogenous in cells; host or cells: HepG2
T5 sequence (P35869 11-848): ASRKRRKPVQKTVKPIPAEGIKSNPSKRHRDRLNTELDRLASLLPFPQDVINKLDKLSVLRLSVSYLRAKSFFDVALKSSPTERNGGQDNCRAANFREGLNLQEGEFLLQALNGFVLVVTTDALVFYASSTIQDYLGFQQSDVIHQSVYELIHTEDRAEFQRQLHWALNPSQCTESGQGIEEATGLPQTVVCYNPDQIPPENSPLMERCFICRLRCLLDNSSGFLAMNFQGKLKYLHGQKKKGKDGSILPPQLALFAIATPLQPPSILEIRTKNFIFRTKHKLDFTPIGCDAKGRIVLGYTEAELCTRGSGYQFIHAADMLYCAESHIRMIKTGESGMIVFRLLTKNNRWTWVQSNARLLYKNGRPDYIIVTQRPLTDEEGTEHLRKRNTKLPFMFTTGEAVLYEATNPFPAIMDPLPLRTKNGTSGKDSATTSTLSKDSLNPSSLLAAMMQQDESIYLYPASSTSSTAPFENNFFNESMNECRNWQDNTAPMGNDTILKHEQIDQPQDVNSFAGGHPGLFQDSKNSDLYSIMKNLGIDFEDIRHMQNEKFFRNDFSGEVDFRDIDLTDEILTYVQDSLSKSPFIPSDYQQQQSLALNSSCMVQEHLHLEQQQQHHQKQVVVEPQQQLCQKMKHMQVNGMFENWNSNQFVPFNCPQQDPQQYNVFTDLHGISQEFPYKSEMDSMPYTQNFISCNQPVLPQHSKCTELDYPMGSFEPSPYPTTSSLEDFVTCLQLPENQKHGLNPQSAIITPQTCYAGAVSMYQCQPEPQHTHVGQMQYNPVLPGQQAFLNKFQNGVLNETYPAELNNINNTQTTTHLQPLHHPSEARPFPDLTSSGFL
Experimental: as §1, §2

LXRb (NR1H2) = target: T6, LXRb (NR1H2) (Homo sapiens, UniProt P55055); test: ATG_LXRb_TRANS: Factorial reporter gene assay (HepG2); format: cell-based; conditions: HepG2
T6 construct: expressed in transfected cells; host or cells: HepG2
T6 sequence (P55055 1-460): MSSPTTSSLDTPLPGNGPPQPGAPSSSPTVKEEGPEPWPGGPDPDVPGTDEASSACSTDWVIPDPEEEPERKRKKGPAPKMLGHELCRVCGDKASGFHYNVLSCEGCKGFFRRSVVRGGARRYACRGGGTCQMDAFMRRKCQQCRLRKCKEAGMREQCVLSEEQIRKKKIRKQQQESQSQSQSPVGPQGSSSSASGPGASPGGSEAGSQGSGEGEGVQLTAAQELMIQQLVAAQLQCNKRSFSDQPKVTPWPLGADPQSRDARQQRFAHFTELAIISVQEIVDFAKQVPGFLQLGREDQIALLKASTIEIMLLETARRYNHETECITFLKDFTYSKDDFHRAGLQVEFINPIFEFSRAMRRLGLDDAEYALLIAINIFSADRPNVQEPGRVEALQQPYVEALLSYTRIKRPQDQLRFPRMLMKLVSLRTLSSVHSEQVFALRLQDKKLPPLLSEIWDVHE
Experimental: as §1, §2

T1 sequence (P03372 whole entry): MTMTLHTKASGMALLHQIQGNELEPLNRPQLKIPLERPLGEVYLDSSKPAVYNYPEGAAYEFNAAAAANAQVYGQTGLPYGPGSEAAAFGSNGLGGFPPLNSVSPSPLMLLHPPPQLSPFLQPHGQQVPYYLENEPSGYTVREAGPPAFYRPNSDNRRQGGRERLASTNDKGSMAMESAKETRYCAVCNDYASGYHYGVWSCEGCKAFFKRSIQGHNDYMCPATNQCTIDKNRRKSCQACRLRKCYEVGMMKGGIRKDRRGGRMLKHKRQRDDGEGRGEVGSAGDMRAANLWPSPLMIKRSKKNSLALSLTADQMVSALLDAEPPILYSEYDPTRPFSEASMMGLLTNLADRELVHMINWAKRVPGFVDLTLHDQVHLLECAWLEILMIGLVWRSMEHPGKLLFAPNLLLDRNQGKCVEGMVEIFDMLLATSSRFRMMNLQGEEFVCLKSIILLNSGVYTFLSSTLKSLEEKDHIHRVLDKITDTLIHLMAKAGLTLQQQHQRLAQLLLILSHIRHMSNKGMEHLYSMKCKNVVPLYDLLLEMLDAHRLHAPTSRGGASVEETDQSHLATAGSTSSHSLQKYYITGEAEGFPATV

Cc1cc(C)nc(NC(=O)NS(=O)(=O)c2ccccc2C(=O)OC2COC2)n1 [r232]
CHR_Rat_Liver_1_AnyLesion (Rat Liver [1]; rat, chronic study): 6
ATG_ERE_CIS [2]: 4.319
ATG_PXRE_CIS (PXR (NR1I2) [3]): 4.337
CHR_Rat_Liver_2_PreneoplasticLesion (Rat Liver [4]; rat, chronic study): 6
CLZD_CYP2B6_24 (CYP2B6): 4.534
CHR_Rat_Liver_3_NeoplasticLesion (Rat Liver [5]; rat, chronic study): 0
CLZD_CYP3A4_24 (CYP3A4): 4.535
CHR_Mouse_Liver_1_AnyLesion (Mouse Liver [6]): 6

CCCN(CCOc1c(Cl)cc(Cl)cc1Cl)C(=O)n1ccnc1 [r251]
CHR_Rat_Liver_1_AnyLesion (Rat Liver [1]; rat, chronic study): 6
CHR_Mouse_Liver_2_PreneoplasticLesion (Mouse Liver [7]): 6
NVS_NR_hAR (AR (androgen receptor)): 4.903
ATG_PXR_TRANS (PXR (NR1I2) [8]): 5.444
ATG_PXRE_CIS (PXR (NR1I2) [3]): 5.538
CHR_Rat_Liver_2_PreneoplasticLesion (Rat Liver [4]; rat, chronic study): 0
NVS_NR_hPXR (PXR (NR1I2) [9]): 5.274
ATG_PPARg_TRANS [10]: 5.456
CHR_Rat_Liver_3_NeoplasticLesion (Rat Liver [5]; rat, chronic study): 0
CHR_Mouse_Liver_3_NeoplasticLesion (Mouse Liver [11]): 6
CHR_Mouse_Liver_1_AnyLesion (Mouse Liver [6]): 6

CN=C=S [row 205]
ATG_LXRa_TRANS (LXRa (NR1H3)): 4.495
ATG_PPARg_TRANS [10]: 4.215

COC(=O)c1ccccc1S(=O)(=O)NC(=O)Nc1nc(C)nc(OC)n1 [row 210]
CHR_Rat_Liver_1_AnyLesion (Rat Liver [1]; chronic rat study, liver): 0
ATG_Ahr_CIS [12]: 4.337
CHR_Rat_Liver_2_PreneoplasticLesion (Rat Liver [4]; chronic rat study, liver): 0
ATG_LXRb_TRANS (LXRb (NR1H2)): 4.215
CHR_Rat_Liver_3_NeoplasticLesion (Rat Liver [5]; chronic rat study, liver): 0
